Where “and” joins values, the source holds several entries; their conditions need not be identical. Equal values may be shown once.
Legend:
[1] = Propylene polymerization, catalyst activity
Excerpt: Solutions of the pre-catalysts were made using toluene (ExxonMobil Chemical-anhydrous, stored under N2) (98%) or isohexane (ExxonMobil Chemical—polymerization grade, and purified as described below). Pre-catalyst solutions were typically 0.25 mmol/L.
Activation of the pre-catalysts was either by dimethylanilinium tetrakisperfluorophenylborate (Boulder Scientific or Albemarle Corp; Act ID=A) or (hydrogenated tallow alkyl)methylammonium tetrakis(pentafluorophenyl)borate supplied as a 10 wt % solution in methylcyclohexane (Boulder Scientific; Act ID=B). Activators were typically used as a 0.25 mmol/L solution in toluene or isohexane.
Tri-n-octylaluminum (TnOAl or TNOA, Neat, AkzoNobel) was also used as a scavenger prior to introduction of the activator and pre-catalyst into the reactor. TNOA was typically used as a 5 mmol/L solution in toluene or isohexane.
Polymerizations were conducted in an inert atmosphere (N2) drybox using autoclaves equipped with an external heater for temperature control, glass inserts (internal volume of 22.5 mL), septum inlets, regulated supply of nitrogen and propylene, and equipped with disposable PEEK mechanical stirrers (800 RPM). The autoclaves were prepared by purging with dry nitrogen at 110° C. or 115° C. for 5 hours and then at 25° C. for 5 hours.
The reactor was prepared as described above, then heated to 40° C., and then purged with propylene gas at atmospheric pressure. Toluene or isohexanes, liquid propylene (1.0 mL) and scavenger (TNOA, 0.5 μmol) were added via syringe. The reactor was then brought to process temperature (70° C. or 100° C.) while stirring at 800 RPM. The activator solution, followed by the pre-catalyst solution, were injected via syringe to the reactor at process conditions. Reactor temperature was monitored and typically maintained within +/−1° C. Polymerizations were halted by addition of approximately 50 psi compressed dry air gas mixture to the autoclaves for approximately 30 seconds. The polymerizations were quenched based on a predetermined pressure loss (maximum quench value) or for a maximum of 30 minutes. The reactors were cooled and vented. The polymers were isolated after the solvent was removed in-vacuo. The actual quench time (s) is reported as quench time (s). Yields reported include total weight of polymer and residual catalyst. […] Propylene homopolymerization examples are reported in Table 2 with additional characterization in Table 3.
Polymerization results are collected in Tables 2. “Ex #” stands for example number. Example numbers starting with a “C” are comparative examples. “Cat ID” identifies the pre-catalyst used in the experiment. Corresponding numbers identifying the pre-catalyst (also referred to as pre-catalyst, catalyst, complex or compound) are located in the synthetic experimental section. T (° C.) is the polymerization temperature which was typically maintained within +/−1° C. “Yield” is polymer yield, and is not corrected for catalyst residue. “Quench time (s)” is the actual duration of the polymerization run in seconds. For propylene homopolymerization runs, quench value indicates the maximum set pressure loss (conversion) of propylene during the polymerization. Activity is reported at grams polymer per mmol of catalyst per hour.
Activator A is N,N-dimethylanilinium tetrakis(pentafluorophenyl)borate activator and activator B is (hydrogenated tallow alkyl)methylammonium tetrakis(pentafluorophenyl)borate. When activator A was used, both the pre-catalyst and activator solutions were in toluene. When activator B was used, both pre-catalyst and activator solutions were in isohexane. Small amounts of methylcyclohexane (MCH) result from activator B being supplied by the manufacturer as a 10 wt % solution in methylcyclohexane.

[2] = Solubility of complexes in isohexane at room temperature; format: physicochemical; conditions: room temperature (20° C.-25° C.); for Solubility in isohexane: cocrystallized solvent included in formula weight; for Solubility in isohexane (wt %): cocrystallized solvent included in mass
Experimental: General considerations: Solubility studies were performed using complexes that were isolated as crystalline or microcrystalline solids. […] Complex 3, embodying the present technological advancement, was cocrystallized with 0.6 equivalents of isohexane. Complex 4, embodying the present technological advancement, was cocrystallized with 0.5 equivalents of isohexane. Solvents used were sparged with nitrogen (30-60 minutes) and dried over 3 angstrom molecular sieves. Unless stated otherwise all measurements were performed at ambient temperature (20° C.-25° C.).
General procedure: A tared vial was loaded with a small amount of the complex (actual mass recorded, typically 5-30 mg). Then a small stir bar (8 mm) was added. Solvent was then added and the mixture was stirred rapidly (1000 rpm). […] This process was repeated until either a clear solution was obtained (no visible solids or murkiness) or the vial was full. As the mixture approached homogeneity (i.e., few remaining solids observed) the volume of the solvent additions was kept small (<1 mL) to minimize the overshooting of the solvent required to achieve homogeneity. The stir bar was then removed and the mass of the mixture was measured. If a clear solution had formed then the solubility of the complex was calculated based on the mass of complex and the amount of solvent added to achieve a homogeneous solution. If the mixture remained heterogeneous (visible solids or murky), then the value reported is given as being “less than” the calculated value. Formulas used to calculate solubility are listed below. Cocrystallized solvent is included in the mass and formula weights of the complexes. The density of isohexane used in the calculations was 0.672 g/ml, and the density of the complex was assumed to be 1.0 g/ml.
Solubility (in wt %)=[100]*[(weight of complex)/(weight of solution)]
Solubility (in mM)=[10^6]*[(grams of complex)/(formula wt. of complex in g/mol)]/[(grams of solvent)/(density of solvent in g/mL)]

[3] = Activator B ((hydrogenated tallow alkyl)methylammonium tetrakis(pentafluorophenyl)borate), T 70 °C, solutions in isohexane, no toluene
[4] = Activator B ((hydrogenated tallow alkyl)methylammonium tetrakis(pentafluorophenyl)borate), T 100 °C, solutions in isohexane, no toluene

| Compound | Activity (g P/mmol cat · hr) [1, 3] | Activity (g P/mmol cat · hr) [1, 4] | Activity (g P/mmol cat · hr) ([1]; Activator A (N,N-dimethylanilinium tetrakis(pentafluorophenyl)borate), T 100 °C, catalyst and activator solutions in toluene) | Solubility in isohexane [2] | Solubility in isohexane (wt %) [2] |
| --- | --- | --- | --- | --- | --- |
| dimethylzirconium[2′,2′″-(pyridine-2,6-diyl)bis(3-adamantan-1-yl)-5-(tert-butyl)-[1,1′-biphenyl]-2-olate)] [Complex 2, reference compound] | 2,069,268 g P/mmol cat · hr and 4,201,200 g P/mmol cat · hr and 3,074,182 g P/mmol cat · hr | 2,345,000 g P/mmol cat · hr and 2,682,545 g P/mmol cat · hr and 2,225,032 g P/mmol cat · hr |  |  |  |
| CCCCCCCCOc1ccc2c(c1)-c1cc(C(C)(C)C)cc(C34CC5CC(CC(C5)C3)C4)c1[O][Zr]([CH3])([CH3])[O]c1c(cc(C(C)(C)C)cc1C13CC4CC(CC(C4)C1)C3)-c1cc(OCCCCCCCC)ccc1-c1cccc-2n1 [Complex 5] | 6,656,571 g P/mmol cat · hr and 5,844,800 g P/mmol cat · hr and 5,664,000 g P/mmol cat · hr | 2,700,444 g P/mmol cat · hr and 1,772,923 g P/mmol cat · hr and 2,571,840 g P/mmol cat · hr | 3,376,421 g P/mmol cat · hr and 2,318,545 g P/mmol cat · hr and 2,591,040 g P/mmol cat · hr |  |  |
| CCCCOc1ccc2c(c1)-c1cc(C(C)(C)C)cc(C34CC5CC(CC(C5)C3)C4)c1[O][Zr]([CH3])([CH3])[O]c1c(cc(C(C)(C)C)cc1C13CC4CC(CC(C4)C1)C3)-c1cc(OCCCC)ccc1-c1cccc-2n1 [Complex 4] |  | 2,448,000 g P/mmol cat · hr and 2,638,800 g P/mmol cat · hr and 1,007,059 g P/mmol cat · hr |  | 15.7 mM | 2.55 wt % |
| CCCCCCCCCCCCOc1ccc2c(c1)-c1cc(C(C)(C)C)cc(C34CC5CC(CC(C5)C3)C4)c1[O][Zr]([CH3])([CH3])[O]c1c(cc(C(C)(C)C)cc1C13CC4CC(CC(C4)C1)C3)-c1cc(OCCCCCCCCCCCC)ccc1-c1cccc-2n1 [Complex 6] | 1,713,412 g P/mmol cat · hr and 1,940,093 g P/mmol cat · hr and 1,864,216 g P/mmol cat · hr |  |  |  |  |
| CCCCOc1ccc2c(c1)-c1cc(C)cc(C34CC5CC(CC(C5)C3)C4)c1[O][Zr]([CH3])([CH3])[O]c1c(cc(C)cc1C13CC4CC(CC(C4)C1)C3)-c1cc(OCCCC)ccc1-c1cccc-2n1 [Complex 3] |  |  |  | 1.10 mM | 0.168 wt % |
